Results published in patent US6348478B1, “Biphenylamidine derivatives” (Teijin Limited, priority 1997, dated 2002).
Where “and” joins values, the source holds several entries; their conditions need not be identical. Equal entries are not always repeated.

Columns and labels:
human FXa = human FXa (Homo sapiens, UniProt P00742); assay: Measurement of activated blood coagulation factor X (FXa)-inhibiting action; assay type: biochemical; details: substrate S-2765, 30 minutes incubation, A405, read-out: FXa inhibition activity (IC50)
Method: Measurement of activated blood coagulation factor X (FXa)-inhibiting action
(§1) A specimen was dissolved in water or in water containing an organic solvent (DSMO, ethanol or methanol) in a proper concentration to prepare a specimen. 70 μl of the specimen stepwisely diluted with water was mixed with 90 μl of a 100 mM Tris buffer solution (pH 8.4), 20 μl of a 50 mM Tris buffer solution (pH 8.4) of 50 mU/ml human FXa, and a 2 mM substrate (Daiichikagaku. S-2765), incubated for 30 minutes, mixed with 50 μl of 50% acetic acid, and then subjected to the measurement of absorbance (A405). A blank was prepared by adding the Tris buffer solution instead of the FXa, and a control was prepared by adding water instead of the specimen. A 50% inhibition activity (IC50) was determined, and used as the index of the FXa-inhibiting action.

human thrombin = molecular target: T1, human thrombin (Homo sapiens, UniProt P00734); assay: Measurement of thrombin inhibition action; assay type: biochemical; details: substrate S-2238, 30 minutes incubation, A405
T1 construct: 1U/ml human thrombin
Method: Measurement of thrombin inhibition action
as §1, with “70” for “A specimen was dissolved in water or in water containing an organic solvent (DSMO, ethanol or methanol) in a proper concentration to prepare a specimen. 70”, “1U/ml” for “50 mU/ml”, “thrombin,” for “FXa,”, “S-2238),” for “S-2765),”, “thrombin inhibition” for “FXa-inhibiting”

Sequence of human FXa (P00742 235-488 limits assumed): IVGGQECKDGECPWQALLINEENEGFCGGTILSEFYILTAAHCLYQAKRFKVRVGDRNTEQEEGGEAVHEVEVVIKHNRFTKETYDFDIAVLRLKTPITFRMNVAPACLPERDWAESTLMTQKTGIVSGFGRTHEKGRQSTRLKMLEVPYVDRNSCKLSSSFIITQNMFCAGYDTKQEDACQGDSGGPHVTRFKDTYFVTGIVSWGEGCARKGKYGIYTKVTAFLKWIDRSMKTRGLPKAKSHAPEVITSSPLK
Sequence of human FXa (P00742 41-179 partner limits assumed): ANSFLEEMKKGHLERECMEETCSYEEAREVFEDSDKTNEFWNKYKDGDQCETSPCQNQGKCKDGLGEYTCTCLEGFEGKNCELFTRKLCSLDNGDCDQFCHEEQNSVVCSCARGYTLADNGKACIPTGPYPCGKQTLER

Row | IC50 (human FXa) | IC50 (human thrombin) [µM] | SMILES
1 | 1 to 10 µM | – | COC(=O)c1cc(COc2ccc(C(C)C)cc2)cc(-c2cccc(C(=N)N)c2)c1 [Example 3]
2 | 1 to 10 µM | – | CC(C)c1ccc(OCc2cc(C(=O)O)cc(-c3cccc(C(=N)N)c3)c2)cc1 [Example 4]
3 | 1 to 10 µM | > 100 | COC(=O)c1cc(COc2cccc(CN)c2)cc(-c2cccc(C(=N)N)c2)c1 [Example 5]
4 | 1 to 10 µM | > 100 | N=C(N)c1cccc(-c2cc(COc3cccc(CN)c3)cc(C(=O)O)c2)c1 [Example 6]
5 | 1 to 10 µM | > 100 | COC(=O)c1cc(COc2cccc(CCN)c2)cc(-c2cccc(C(=N)N)c2)c1 [Example 9]
6 | 1 to 10 µM | > 100 | N=C(N)c1cccc(-c2cc(COc3cccc(CCN)c3)cc(C(=O)O)c2)c1 [Example 10]
7 | 10 to 100 µM | > 100 | COC(=O)c1cc(COc2cccnc2N)cc(-c2cccc(C(=N)N)c2)c1 [Example 11]
8 | 1 to 10 µM | > 100 | COC(=O)c1cc(COc2ccc(C)cc2N)cc(-c2cccc(C(=N)N)c2)c1 [Example 12]
9 | – | > 100 | COC(=O)c1cc(COc2cccc(N)c2)cc(-c2cccc(C(=N)N)c2)c1 [Example 13]
10 | 1 to 10 µM and 10 to 100 µM | – | COC(=O)c1cc(COc2cccc(CO)c2)cc(-c2cccc(C(=N)N)c2)c1 [Example 15]
11 | – | 10 to 100 | CNc1ccc(OCc2cc(C(=O)OC)cc(-c3cccc(C(=N)N)c3)c2)cc1 [Example 16]
12 | 0.1 to 1 µM | – | COC(=O)c1cc(COc2ccc3c(c2)CNC3)cc(-c2cccc(C(=N)N)c2)c1 [Example 18]
13 | 0.1 to 1 µM | 10 to 100 | COC(=O)c1cc(COc2ccc3c(c2)CN(C(C)=N)C3)cc(-c2cccc(C(=N)N)c2)c1 [Example 19]
14 | 10 to 100 µM | > 100 | COC(=O)c1cc(-c2cccc(C(=N)N)c2)ccc1COc1cccc(CN)c1 [Example 20]
15 | 1 to 10 µM | – | COC(=O)c1cc(COCc2ccccc2)cc(-c2cccc(C(=N)N)c2)c1 [Example 23]
